Structures are written as SMILES. Where only a bound is given, the exact number is not on record here.

The subject of assay [1] is K562. As to the kind of experiment: Antiproliferative activity against human K562 cells by MTT assay. Format: functional, cell-based. (In general: Tetrazolium assays rely on reduction of a dye to a coloured formazan, in cell work by metabolically active cells.)
The test system of assay [2] is MCF7. Nature of the assay: Cytotoxicity against human MCF7 cells. Format: functional, cell-based.
The subject of assay [3] is MDA-MB-468. Nature of the assay: Antiproliferative activity against human MDA-MB-468 cells expressing NQO1 by MTT assay. Format: functional, cell-based.
The target of assay [4] is Tubulin (Sus scrofa, UniProt P02554+P02550). As to the kind of experiment: Inhibition of pig tubulin polymerization by spectrophotometry. In kind it is protein assay.

Consider `COc1ccc(/C=C\c2cc(OC)c(OC)c(OC)c2)cc1F`, for which, in assay [1], the IC50 (commonly the midpoint of a concentration-inhibition curve) was 7 nM.

The compound `COc1ccc(/C=C/c2cc(OC)c(OC)c(OC)c2)cc1B(O)O` showed an IC50 in assay [2] of 470000 nM.

With `COc1ccc(/C=C/c2cc(OC)c(OC)c(OC)c2)cc1F`, the IC50 in assay [1] was over 2500 nM.

In assay [1], `COc1ccc(/C=C/c2cc(OC)c(OC)c(OC)c2)cc1Br` showed an IC50 of 7830 nM.

Consider `COc1ccc(/C=C(/C#N)c2cc(OC)c(OC)c(OC)c2)cc1F`, for which the IC50 in assay [1] amounted to 6.7 nM; in assay [3] it was 4.1 nM; in assay [4], 4200 nM.

As for `COc1ccc(/C=C(\C#N)c2cc(OC)c(OC)c(OC)c2)cc1F`, the IC50 stood at 18.7 nM in assay [1], 20.3 nM in assay [3] and 18500 nM in assay [4].

Take `COc1ccc(/C=C(\C#N)c2cc(OC)c(OC)c(OC)c2)cc1Br`: the IC50 in assay [1] is 49.5 nM; in assay [3] it was 70.6 nM; in assay [4], 35600 nM.

In the case of `COc1ccc(/C=C(\C#N)c2cc(OC)c(OC)c(OC)c2)cc1I`, the figures for the IC50 in assay [1], in assay [3] and in assay [4] were 42.6 nM, 85.3 nM and 43800 nM, respectively.

In the case of `C#Cc1cc(/C=C(\C#N)c2cc(OC)c(OC)c(OC)c2)ccc1OC`, the IC50 is 30.2 nM in assay [1], 46.5 nM in assay [3] and 25300 nM in assay [4].

Turning to `COc1ccc(/C=C(\C#N)c2cc(OC)c(OC)c(OC)c2)cc1B(O)O`, the IC50 in assay [1] is 20.4 nM; in assay [3] it was 35.7 nM; in assay [4], 17400 nM.

On to `COc1ccc(/C=C\c2cc(OC)c(OC)c(OC)c2)cc1O` [COMBRETASTATIN A4], for which the figures for the IC50 in assay [1] and in assay [3] were 2.3 nM and 3.1 nM, respectively.

The values above are taken from ChEMBL document CHEMBL2157960, “Novel cyanocombretastatins as potent tubulin polymerisation inhibitors” (Bioorg Med Chem Lett, 2012).
